In ChEMBL document CHEMBL1799932, “Antimalarial pyrido[1,2-a]benzimidazoles” (J Med Chem, 2011):
Active and inactive are the calls of the source. No cut-off for these calls is given here.

Columns and labels:
[1] = test system: Plasmodium berghei; assay: Antimalarial activity against GFP-transfected Plasmodium berghei strain ANKA infected in NMRI mouse assessed as reduction in parasitemia at 50 mg/kg, po administered as single dose measured on day 2 by FACS analysis; assay type: functional; set-up: scale not given: the % may be the effect or the level left
[2] = Metabolic stability in mouse liver microsomes assessed as intrinsic clearance per mg protein after 60 mins by LC-MS analysis; assay type: ADME, Microsome
[3] = Metabolic stability in human liver microsomes assessed as intrinsic clearance per mg protein after 60 mins by LC-MS analysis; assay type: ADME, Microsome
[4] = Metabolic stability in rat liver microsomes assessed as intrinsic clearance per mg protein after 60 mins by LC-MS analysis; assay type: ADME, Microsome
[5] = test system: Plasmodium berghei; assay: Antimalarial activity against GFP-transfected Plasmodium berghei strain ANKA infected in NMRI mouse assessed as reduction in parasitemia at 50 mg/kg, po administered as single dose measured on day 3 by FACS analysis; assay type: functional; set-up: scale not given: the % may be the effect or the level left
[6] = test system: Plasmodium berghei; assay: Antimalarial activity against GFP-transfected Plasmodium berghei strain ANKA infected in NMRI mouse assessed as reduction in parasitemia at 50 mg/kg, po administered as single dose measured on day 4 by FACS analysis; assay type: functional; set-up: scale not given: the % may be the effect or the level left
[7] = test system: Plasmodium berghei; assay: Antimalarial activity against GFP-transfected Plasmodium berghei strain ANKA infected in NMRI mouse assessed as reduction in parasitemia at 50 mg/kg, po administered as single dose measured on day 5 by FACS analysis; assay type: functional; set-up: scale not given: the % may be the effect or the level left
[8] = test system: Plasmodium berghei; assay: Antimalarial activity against GFP-transfected Plasmodium berghei strain ANKA infected in NMRI mouse assessed as reduction in parasitemia at 25 mg/kg, po administered as single dose measured on day 2 by FACS analysis; assay type: functional; set-up: scale not given: the % may be the effect or the level left
[9] = test system: Plasmodium berghei; assay: Antimalarial activity against GFP-transfected Plasmodium berghei strain ANKA infected in NMRI mouse assessed as reduction in parasitemia at 25 mg/kg, po administered as single dose measured on day 3 by FACS analysis; assay type: functional; set-up: scale not given: the % may be the effect or the level left
[10] = test system: Plasmodium berghei; assay: Antimalarial activity against GFP-transfected Plasmodium berghei strain ANKA infected in NMRI mouse assessed as reduction in parasitemia at 25 mg/kg, po administered as single dose measured on day 4 by FACS analysis; assay type: functional; set-up: scale not given: the % may be the effect or the level left
[11] = test system: Plasmodium berghei; assay: Antimalarial activity against GFP-transfected Plasmodium berghei strain ANKA infected in NMRI mouse assessed as reduction in parasitemia at 25 mg/kg, po administered as single dose measured on day 5 by FACS analysis; assay type: functional; set-up: scale not given: the % may be the effect or the level left
[12] = Metabolic stability in human liver microsomes assessed as degradation half life after 60 mins by LC-MS analysis; assay type: ADME, Microsome
[13] = Metabolic stability in rat liver microsomes assessed as degradation half life after 60 mins by LC-MS analysis; assay type: ADME, Microsome
[14] = Metabolic stability in mouse liver microsomes assessed as degradation half life after 60 mins by LC-MS analysis; assay type: ADME, Microsome
[15] = test system: Plasmodium berghei; assay: Antimalarial activity against GFP-transfected Plasmodium berghei strain ANKA infected in NMRI mouse assessed as increase in mean survival time at 25 mg/kg, po administered as single dose (reference value: 5 days )
[16] = test system: Plasmodium berghei; assay: Antimalarial activity against GFP-transfected Plasmodium berghei strain ANKA infected in NMRI mouse assessed as increase in mean survival time at 50 mg/kg, po administered as single dose (reference value: 5 days )
[17] = test system: L6; assay: Cytotoxicity at rat L6 cells after 72 hrs by microplate alamar blue assay; assay type: cell-based
[18] = test system: Plasmodium berghei; assay: Antimalarial activity against GFP-transfected Plasmodium berghei strain ANKA infected in NMRI mouse assessed as reduction in parasitemia at 50 mg/kg/day, ip administered for 4 consecutive days measured 24 hrs after last treatment by FACS analysis relative to control; assay type: functional; set-up: scale not given: the % may be the effect or the level left; settings: route intraperitoneal
[19] = test system: Plasmodium berghei; assay: Antimalarial activity against GFP-transfected Plasmodium berghei strain ANKA infected in NMRI mouse assessed as increase in median survival time at 50 mg/kg/day, ip administered for 4 days measured up to 30 days post infection (reference value: 5 to 7 days); assay type: functional; settings: route intraperitoneal
[20] = test system: Plasmodium berghei; assay: Antimalarial activity against GFP-transfected Plasmodium berghei strain ANKA infected in NMRI mouse assessed as reduction in parasitemia at 100 mg/kg/day, po administered for 4 consecutive days measured 24 hrs after last treatment by FACS analysis relative to control; assay type: functional; set-up: scale not given: the % may be the effect or the level left
[21] = test system: Plasmodium berghei; assay: Antimalarial activity against GFP-transfected Plasmodium berghei strain ANKA infected in NMRI mouse assessed as increase in median survival time at 100 mg/kg/day, po administered for 4 days measured up to 30 days post infection (reference value: 5 to 7 days); assay type: functional
[22] = test system: Plasmodium falciparum
Description: (§1) Antimalarial activity against multidrug-resistant Plasmodium falciparum K1 infected in human red blood cells assessed as 3H-hypoxanthine incorporation after 48 hrs by liquid scintillation counting

[23] = test system: Plasmodium falciparum; assay: microbe, parasite or virus in culture; settings: W2, 48 h
[24] = test system: Plasmodium falciparum; assay: microbe, parasite or virus in culture; settings: HB3
Description: Antimalarial activity against Plasmodium falciparum HB3

[25] = test system: Plasmodium falciparum; assay: microbe, parasite or virus in culture; settings: NF54
Description: Antimalarial activity against Plasmodium falciparum NF54

[26] = test system: Plasmodium falciparum; assay: microbe, parasite or virus in culture; settings: FC27/Papua New Guinea
Description: Antimalarial activity against Plasmodium falciparum FC27

[27] = test system: Plasmodium falciparum; assay: microbe, parasite or virus in culture; settings: FCR-3/Gambia
Description: Antimalarial activity against Plasmodium falciparum FCR3

[28] = test system: Plasmodium falciparum; assay: microbe, parasite or virus in culture; settings: Mad20/Papua New Guinea
Description: Antimalarial activity against Plasmodium falciparum Mad20

[29] = test system: Plasmodium falciparum; assay: microbe, parasite or virus in culture; settings: K1
Description: Antimalarial activity against Plasmodium falciparum K1

[30] = Selectivity index, ratio IC50 for rat L6 cells to IC50 for multidrug-resistant Plasmodium falciparum K1 infected in human red blood cells; assay type: functional
[31] = Distribution coefficient, log D of the compound at pH 7.4; assay type: physicochemical; settings: octanol/water
[32] = test system: Plasmodium falciparum; assay: microbe, parasite or virus in culture; settings: K1; remark: listed apart in the source
Description: as §1

[33] = test system: Plasmodium falciparum; assay: Ratio IC50 for chloroquine to compound for multidrug-resistant Plasmodium falciparum K1; assay type: functional
[34] = test system: Plasmodium berghei; assay: Antimalarial activity against GFP-transfected Plasmodium berghei strain ANKA infected in NMRI mouse assessed as complete cure from parasite infection at 3 to 50 mg/kg, po administered as multiple dose for 4 days measured 24 hrs after last treatment; assay type: functional, organism-based
[35] = test system: Plasmodium falciparum; assay: Antimalarial activity against Plasmodium falciparum GHA; assay type: functional, organism-based
[36] = test system: Plasmodium falciparum; assay: Antimalarial activity against Plasmodium falciparum W2; assay type: functional, organism-based

Cl.N#Cc1c(-c2ccc(C(F)(F)F)cc2)cc(NCCN2CCCC2)n2c1nc1ccccc12 gave an Activity [1] of 14.04%, a microsomal CLint [2] of 25.6 µL/min/mg and a microsomal CLint [3] of 88.4 µL/min/mg. It also gave a microsomal CLint [4] of 25.8 µL/min/mg, an Activity [5] of 47.92% and an Activity [6] of 73.01%. It also gave an Activity [7] of 88.53%, an Activity [8] of 14.75% and an Activity [9] of 43.2%. It also gave an Activity [10] of 63.73%, an Activity [11] of 63.72% and a half-life [12] of 0.327 h. The half-life [13] was 1.12 h, the half-life [14] was 1.13 h and the MSD [15] was 7.7 days. The MSD [16] was 5 days.
With CCN(CC)CCCNc1cc(-c2ccc(C(F)(F)F)cc2)c(C#N)c2nc3ccccc3n12.Cl the IC50 ([17]; l6) was 2230 nM, the Activity [18] was 72.6% and the MSD [19] was 9 days. For the same compound, the Activity [20] was 93.4%, the MSD [21] was 11 days and the IC50 [22] was 160 nM.
In the case of CCN(CC)CCNc1cc(-c2ccc(C(F)(F)F)cc2)c(C#N)c2nc3ccccc3n12.CS(=O)(=O)O, the IC50 ([17]; l6) is reported as 124000 nM, the Activity [18] is reported as 95.2% and the MSD [19] is reported as 11 days. It also gave an Activity [20] of 97.4%, an MSD [21] of 11 days and an IC50 [22] of 90 nM.
In the case of CCc1nc(N)nc(N)c1-c1ccc(Cl)cc1 [PYRIMETHAMINE], the IC50 [23] is reported as 29500 nM, the IC50 [24] is reported as 1150 nM and the IC50 [25] is reported as 19 nM. The IC50 [26] was under 60 nM, the IC50 [27] was 12 nM and the IC50 [28] was under 60 nM. It also gave an IC50 [29] of 9900 nM.
With CCNCCNc1cc(-c2ccc(C(F)(F)F)cc2)c(C#N)c2nc3ccccc3n12 [listing 1 of 2 here] the “Ratio IC50” value [30] was 20.5, the IC50 ([17]; Rattus norvegicus, L6, 72 h) was 2460 nM and the logD [31] was 2.01. The IC50 [32] was 120 nM, the IC50 [23] was 123 nM and the IC50 [24] was 90 nM. It also gave an IC50 [25] of 110 nM, an IC50 [26] of 110 nM and an IC50 [27] of 154 nM. The IC50 [28] was 106 nM and the IC50 [29] was 116 nM.
Cl.N#Cc1c(-c2ccc(C(F)(F)F)cc2)cc(NCCN2CCCCC2)n2c1nc1ccccc12 gave a microsomal CLint [2] of 29.1 µL/min/mg, a microsomal CLint [3] of 45.8 µL/min/mg and a microsomal CLint [4] of 27 µL/min/mg. It also gave an Activity [8] of 28.44%, an Activity [9] of 28.07% and an Activity [10] of 38.72%. It also gave an Activity [11] of 46.41%, a half-life [12] of 0.632 h and a half-life [13] of 1.07 h. The half-life [14] was 0.992 h and the MSD [15] was 12.7 days.
Compound CN(C)CCNc1cc(-c2ccc(C(F)(F)F)cc2)c(C#N)c2nc3ccccc3n12.CS(=O)(=O)O has an IC50 ([17]; l6) of over 175000 nM, an Activity [18] of 94.1% and an MSD [19] of 11 days. The Activity [20] was 96.8%, the MSD [21] was 13.7 days and the IC50 [22] was 140 nM.
For N#Cc1c(-c2ccccc2)cc(NCCN)n2c1nc1ccccc12, the “Ratio IC50” value [30] was 4.2, the IC50 ([17]; Rattus norvegicus, L6, 72 h) was 18900 nM and the “Ratio IC50” value [33] was 22. It also gave a logD [31] of 0.83 and an IC50 [32] of 4480 nM.
With CCN(CC)CCNc1cc(-c2ccc(C(F)(F)F)cc2)c(C#N)c2nc3ccccc3n12 the “Ratio IC50” value [30] was 612, the IC50 ([17]; l6) was 28800 nM and the “Ratio IC50” value [33] was 3.5. The logD [31] was 2.94, the IC50 [32] was 47 nM and the IC50 [23] was 84 nM. It also gave an IC50 [24] of 60 nM, an IC50 [25] of 110 nM and an IC50 [26] of 175 nM. For the same compound, the IC50 [27] was 137 nM, the IC50 [28] was 104 nM and the IC50 [29] was 47 nM.
For CCNCCNc1cc(-c2ccc(C(F)(F)F)cc2)c(C#N)c2nc3ccccc3n12 [listing 2 of 2 here], the Activity [34] was “inactive”.
Work on N#Cc1c(-c2ccccc2)cc(N2CCNCC2)n2c1nc1ccccc12 yielded an IC50 [35] of 170 nM, an IC50 [36] of 170 nM and an IC50 [29] of 170 nM.
